Data published in US12678412B2, “Substituted tolans for the modulation of microbial colonization” (BioMendics, LLC, priority 2017, dated 2026).

Tests used:
[1] = tested on: MRSA USA 400; assay: Bacterial cell death, DAPI/propidium iodide staining; assay type: cell-based, Staphylococcus aureus; details: 24 h treatment; 0.002 mM to 0.0625 mM; FIG. 13
Experimental: In order to confirm that treatment with BM3103 induced MRSA USA 400 bacterial cell death, both untreated cells and cells treated with BM3103 were stained with a combination of DAPI (nuclear stain) and Propidium iodide (PI, Live dead stain). In a healthy cell, PI is not able to cross the cell membrane and produces no fluorescent signal. If the cell is dead or has a compromised cell membrane it will bind DNA and fluoresces between 535 nm excitation and 617 nm emission. MRSA USA 400 were plated in a well plate at 10^8 CFU/mL in combination with BM3103 treatment or no treatment. Plates were placed at 37° C. for 24 h. Bacteria cells were co-stained with DAPI and PI at 50 μg/mL and 500 μg/mL, respectively, for 15 min at room temperature. Wells were washed with warmed phosphate buffered saline (PBS) and maintained in PBS throughout the imaging acquisition process. Images were captured using the same exposure limits for each filter. […] Concentrations above 0.0625 mM gave a similar result.

[2] = tested on: Acinetobacter baumannii; assay: Colony forming assay, 24 h plate assay, Acinetobacter baumannii; assay type: cell-based; details: Transcutol formulation, FIG. 11
Experimental: Proliferating cultures of Acinetobacter baumannii were used in a colony forming assay. Frozen stock cultures of Acinetobacter baumannii were thawed and grown overnight in tryptic soy broth (TSB) with shaking at 37° C. The overnight culture (0.5-1.0 mL) was added to 100 mL TSB and grown at 37° C. with shaking and monitored for an optical density of 0.20-0.38 to obtain a final inoculum suspension of approximately 10^8 CFU/mL.
BM3103 was dissolved into Transcutol (diethylene glycol monoethyl ether) at 2.5% w/v and vortexed until dissolved. This concentration was then serial diluted to achieve the remaining concentrations tested. Before plating, 100 μL of the final inoculum (10^8 CFU/mL) was mixed with 20 μL TSB broth and 80 μL of BM3103 doses or vehicle. Tobramycin, 600 μg/mL, served as the positive control. The final plating concentrations for BM3103 were 1, 0.5, 0.25, and 0.1% w/v (44 mM, 22 mM, 11 mM, 4 mM) BM3103. Vehicle and BM3103 formulations contained matching final concentration of 40% v/v Transcutol.
The Transcutol formulations combined with the inoculum were plated onto TSB agar plates. The plates were grown at 37° C. for 24 h, imaged, and the bacteria colonies were counted. The experiment was done four times at each concentration level described above. Colony counts for each treatment were tabulated and the Log of the colony forming units/mL (Log CFU/mL) were determined. The mean and the standard error of the mean were calculated for each treatment.

[3] = tested on: S. typhimurium TA1535; assay: Dose range finding colony forming assay, strain TA1535 without metabolic activation; assay type: cell-based
Experimental: A series of dose range finding assays were performed with five bacterial strains, S. typhimurium TA97a, TA98, TA100, TA1535, and E. coli WP2 uvrA pKM101, with and without metabolic activation at three plates per dose. The following doses, along with positive and negative controls, were tested: 5000, 2500, 1250, 500, 250, 125, 50, 20, 10, 5, 2, 1, and 0.2 μg/plate. The plates were evaluated for toxicity (a decrease in plate counts with increasing dose and/or a visible thinning of the background lawn) and for precipitation of the test article. Metabolic activation was included in some samples by adding phenobarbital/benzoflavone-induced rat liver S9 fractions with cofactors (S9 mix). Prior to use, freshly thawed aliquots of rat liver S9 were mixed with a sterile cofactor mix. The S9 mix contains a 10% liver S9 concentration and was refrigerated or stored on ice until used. When testing with metabolic activation, the S9 mix was used in the assay tube in place of phosphate buffer.
Dosing formulations were prepared to deliver all doses in a constant volume of 0.1 mL. The highest dose was prepared from test article weighed to the nearest 0.1 mg and the remaining formulations were prepared as serial dilutions from the high dose stock formulation. Using a permanent marking pen or computer printed labels, assay plates were labeled with the project and study numbers and the date. Assay plates and tubes were labeled with a unique identifier, which was used to match the assay tubes with the properly identified minimal glucose agar plate.
The pre-incubation method was used to perform the assay. The assay mix consisted of 0.1 mL of the test article formulation or control article, 0.5 mL S9 mix or phosphate buffer, and 0.1 mL of bacterial culture. Assay tubes were incubated at 37±1° C. with gentle agitation for 20±1 minutes, then 2.0-2.5 mL top agar was added to the assay mix and the top agar/assay mix poured onto appropriately labeled minimal glucose agar plates. Once the top agar hardened, the plates were inverted and incubated at 37±1° C. for 48±2 hours. Plates were counted with the Sorcerer (v. 2.2)/Ames Study Manager (v. 1.2.4) system from Perceptive Instruments (Suffolk, UK). With this system, plate counts are automatically transferred from the plate imager (Sorcerer) to a Study Manager spreadsheet, and the data are stored in a secure manner on an Oracle database. Some plates were hand counted, e.g., if sample precipitate interferes with automatic counting or toxicity results in the formation of microcolonies, in which case, counts for these plates were entered into the spreadsheet manually. Plates were scored also with the extent of colonization by a post fix code.

COc1ccc(C#Cc2ccc(O)cc2)cc1 [BM3103, 4-hydroxy-4′-methoxytolan]
PI staining (cell death) [1]: dose dependent increase in PI staining | Reduction of Acinetobacter baumannii bacterial counts ([2]; 0.1%): no reduction | Reduction of Acinetobacter baumannii bacterial counts ([2]; 0.25%): slight reduction | Reduction of Acinetobacter baumannii bacterial counts ([2]; 0.5%): 4 fold | Reduction of Acinetobacter baumannii bacterial counts ([2]; 1%): almost a complete reduction | Colony forming units/plate ([3]; 0.2 μg/plate): 12.0 colony forming units/plate | Individual colony counts ([3]; 0.2 μg/plate): 12 | Colony forming units/plate ([3]; 1 μg/plate): 11.0 colony forming units/plate | Individual colony counts ([3]; 1 μg/plate): 11 | Colony forming units/plate ([3]; 2 μg/plate): 10.0 colony forming units/plate | Individual colony counts ([3]; 2 μg/plate): 10 | Colony forming units/plate ([3]; 5 μg/plate): 6.0 colony forming units/plate | Individual colony counts ([3]; 5 μg/plate): 6 | Colony forming units/plate ([3]; 10 μg/plate): 0.0 colony forming units/plate | Individual colony counts ([3]; 10 μg/plate): 0 | Plate postfix code (individual colony counts) ([3]; 10 μg/plate): A T | Colony forming units/plate ([3]; 20 μg/plate): 0.0 colony forming units/plate | Individual colony counts ([3]; 20 μg/plate): 0 | Colony forming units/plate ([3]; 50 μg/plate): 0.0 colony forming units/plate | Individual colony counts ([3]; 50 μg/plate): 0 | Colony forming units/plate ([3]; 125 μg/plate): 0.0 colony forming units/plate | Individual colony counts ([3]; 125 μg/plate): 0 | Colony forming units/plate ([3]; 250 μg/plate): 0.0 colony forming units/plate | Individual colony counts ([3]; 250 μg/plate): 0 | Colony forming units/plate ([3]; 500 μg/plate): 0.0 colony forming units/plate | Individual colony counts ([3]; 500 μg/plate): 0 | Colony forming units/plate ([3]; 1250 μg/plate): 0.0 colony forming units/plate | Individual colony counts ([3]; 1250 μg/plate): 0 | Plate postfix code (individual colony counts) ([3]; 1250 μg/plate): A P | Colony forming units/plate ([3]; 2500 μg/plate): 0.0 colony forming units/plate | Individual colony counts ([3]; 2500 μg/plate): 0 | Plate postfix code (individual colony counts) ([3]; 2500 μg/plate): A P | Colony forming units/plate ([3]; 5000 μg/plate): 0.0 colony forming units/plate | Individual colony counts ([3]; 5000 μg/plate): 0 | Plate postfix code (individual colony counts) ([3]; 5000 μg/plate): A P
